One data set deals with U2OS. Put plainly: MTS cytotoxicity assay, 72 h, U2OS. The settings on record: Homo sapiens. The class given is cell-based.
A further data set has as its system CEM-DNR. Put plainly: MTS cytotoxicity assay, 72 h, CEM-DNR. The class given is cell-based. The settings on record: Homo sapiens. In general terms: Tetrazolium dyes change colour on reduction, which living cells bring about.
Another data set deals with CCRF-CEM. Put plainly: MTS cytotoxicity assay, 72 h, CCRF-CEM. In kind it is cell-based. The settings on record: Table 1. Put shortly: (§1)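 Cells were exposed to compounds for 72 h at 50–0.0975 μmol/L (2-fold dilutions), then MTS/phenazine methosulfate was added for 1–4 h. Absorbance read at 490 nm; IC50 derived from concentration-response.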
A further data set deals with DU-145 (prostate cancer). Put plainly: MTS cytotoxicity assay, 72 h, DU-145. In kind it is cell-based, human. The conditions noted are these: Homo sapiens, DU-145, 72 h. Put shortly: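 DU145 cells, grown in RPMI 1640 plus 10% FBS, are plated at 15,000 cells/mL and treated the following day with a 50–0.0975 μmol/L twofold range. After MTS/phenazine methosulfate for 1–4 h, A490 is measured and IC50 determined.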

Another data set relates to K562-TAX. Put plainly: MTS cytotoxicity assay, 72 h, K562-TAX. The class given is cell-based.
Data set [1] concerns A549 (lung adenocarcinoma). Put plainly: MTS cytotoxicity assay, 72 h, A549. In kind it is cell-based. The conditions noted are these: Homo sapiens, A549, 72 h. In outline:
as §1

Data set [2] has as its system nine cancer and two normal fibroblast derived cell lines. Put plainly: MTS cytotoxicity assay, whole panel of 11 cell lines. The class given is cell-based. The conditions noted are these: 72 h, statement for whole panel. The procedure:
Based on the preliminary results and tests of a larger library of known triterpenoids, a small set of 2-substituted lupane and 18α-oleanane derivatives was designed and synthesized. As the first step, the cytotoxic activity of the synthesized derivatives was assessed using an MTS assay following 72 h of treatment (Table 1). Selected cell lines A549 (lung adenocarcinoma) and DU-145 (prostate cancer) are both dependent on Hh signaling. In addition, K562 (chronic myelogenous leukemia) was included as a cell line sensitive to Hh inhibitors[32] and a type of hematological malignancy with active Hh signaling.[33] MRC-5 lung fibroblasts and BJ human skin fibroblasts cell lines were used to evaluate the toxicity against nontumor cells. Compounds were also tested using the standard panel of other cancer cell lines, as described in our earlier work (Table 1).[27]
The human prostate tumor-derived cell line DU145 was obtained from ATCC (American Type Culture Collection) and cultured in RPMI 1640 (Roswell Park Memorial Institute) medium supplemented with 10% (v/v) fetal bovine serum (FBS). Human prostate tumor-derived LNCaP cells were obtained from ATCC and cultured in RPMI 1640 medium supplemented with 10% FBS. […] Finally, the absorbance at 490 nm was measured using an EnVision multifunctional modular reader (PerkinElmer). The IC50 value was determined using Dotmatics software.

In another data set the test system is HCT 116. Put plainly: MTS cytotoxicity assay, 72 h, HCT 116. In kind it is cell-based. The settings on record: Homo sapiens, HCT-116, 72 h. In outline:
as §1

Data set [3] relates to K562 (chronic myelogenous leukemia). Put plainly: MTS cytotoxicity assay, 72 h, K562. The class given is cell-based. The settings on record: Homo sapiens. In outline: as §1
A further data set relates to HCT116 p53–/–. Put plainly: MTS cytotoxicity assay, 72 h, HCT116 p53–/–. The conditions noted are these: Homo sapiens, HCT-116, 72 h. In kind it is cell-based. Put shortly: as §1
In data set [4] the test system is BJ human skin fibroblasts. Put plainly: MTS cytotoxicity assay, 72 h, BJ fibroblasts. The class given is cell-based. The conditions noted are these: Homo sapiens, Skin fibroblast, normal fibroblasts. Put shortly:
as §1

Another data set relates to MRC-5 lung fibroblasts. Put plainly: MTS cytotoxicity assay, 72 h, MRC-5 fibroblasts. In kind it is cell-based, human. The settings on record: Homo sapiens, MRC5, 72 h, normal fibroblasts. Put shortly: as §1

The record followed here is paper PMC11923649, “Novel C-2 Aromatic Heterocycle-Substituted Triterpenoids Inhibit Hedgehog Signaling in GLI1 Overexpression Cancer Cells” (ACS Omega, 2025).

SMILES strings stand for the structures.

What is called IC50 is the concentration at which inhibition is half-maximal. In the case of `CC1(C)C(=O)C(c2ccc3cn[nH]c3c2)=C[C@@]2(C)C1CC[C@]1(C)C2CCC2C3[C@H]4OC[C@@]3(CCC4(C)C)CC[C@]21C` (stereo partly drawn) [Compound 4n, 2-(Indazol-6-yl)-19β,28-epoxyolean-1-en-3-one], the IC50 is 25 µM in the data set with U2OS (Table 1); 24.5 µM with U2OS (full Table S1); 24 µM with CEM-DNR (Table 1); 24.1 µM in the data set with CEM-DNR (full Table S1); 18 µM with CCRF-CEM (Homo sapiens, CCRF-CEM, 72 h, MTS); 24 µM with DU-145 (prostate cancer) (Table 1). For the same molecule, the half-inhibitory concentration (IC50) in the data set on DU-145 (prostate cancer) (full Table S1) amounted to 23.9 µM; in the data set with K562-TAX (Table 1), 16 µM; in the data set with K562-TAX (full Table S1) it was 16.8 µM; in [1] (Table 1) it was 30 µM; in data set [1] (full Table S1) it was 29.5 µM; in the data set with HCT 116 (Table 1) it was 31 µM. The IC50 in the data set with HCT 116 (full Table S1) was found to be 30.6 µM; in [3] (Table 1), 23 µM; in data set [3] (full Table S1), 22.5 µM; in the data set on HCT116 p53–/– (Table 1), 31 µM; in the data set with HCT116 p53–/– (full Table S1), 30.6 µM; in [4] (Table 1), 42 µM. Further, the values for the 50% inhibitory concentration (IC50) (in data set [4] (full Table S1); in the data set on MRC-5 lung fibroblasts (Table 1); with MRC-5 lung fibroblasts (full Table S1)) were 42.2 µM, 33 µM and 33.2 µM, respectively. Moreover, in the data set on CCRF-CEM (IC50 of CCRF-CEM line vs average of both fibroblasts (BJ and MRC-5)), the “SI (selectivity index)” value turned out to be 2.1. Besides, the “Cytotoxic activity (IC50) on these 11 cell lines” value in data set [2] was “weak cytotoxicity”.
